Where two headings read alike, the source gives them in different places.
Key:
[1] = system: MV4-11; experiment: In vitro antiproliferative assay, MTT, 72 h; type: cell-based, human; conditions: biphenotypic B cell myelomonocytic leukemia MV4-11, 72 h, n.a. = not active in the range of concentrations used (up to 100 µM), read-out: IC50 [µM] ± SD [n = 5] MV4-11
[2] = system: LoVo; experiment: In vitro antiproliferative assay, SRB, 72 h; type: cell-based, human; conditions: colon adenocarcinoma LoVo, n.a. = not active in the range of concentrations used (up to 100 µM), read-out: IC50 [µM] ± SD [n = 5] LoVo
Source text: (§1) The following human cancer cell lines, representing the most common types of cancer, were chosen for evaluation of the antiproliferative activity of the prepared sulfonamides: lung cancer (A549), breast cancer (MCF-7), colon adenocarcinoma (LoVo), and biphenotypic B cell myelomonocytic leukemia (MV4-11). As a reference, the normal mouse fibroblasts cell line (BALB/3T3) was applied. A549, LoVo and BALB/3T3 cell lines were purchased from the ATCC (American Type Culture Collection, Rockville, MD, USA), MCF-7 cell line—from EACC (The European Collection of Cell Cultures), and MV4-11 cell line was obtained from DSMZ (Leibniz Institute—German Collection of Microorganisms and Cell Culture, Braunschweig, Germany). All these lines were maintained at the Hirszfeld Institute of Immunology and Experimental Therapy (IIET) in Wrocław, Poland.
(§2) We used the following culture media: for A549 cell line: the mixture of RPMI 1640 and OptiMEM (1:1) medium (both from Gibco, Scotland, UK)), 2mM L-glutamine, 1mM sodium pyruvate (Sigma-Aldrich Chemie GmbH, Steinheim, Germany) and 5% fetal bovine serum (FBS; HyClone Laboratories, Logan, UT, USA). MCF-7 cells were cultured in Eagle’s medium (IIET, PAS, Wroclaw, Poland), 2mM L-glutamine and 10% of FBS supplemented with 0.8 mg/L of insulin (Sigma-Aldrich Chemie GmbH, Steinheim, Germany). For LoVo cell line, F12K medium was applied (American Type Culture Collection, Rockville, MD, USA-ATCC), with 5% FBS (HyClone Laboratories, Logan, UT, USA). MV4-11 cells were cultured in RPMI 1640/GlutaMax I medium (Gibco, Thermo Fisher Scientific, Leicestershire, UK) with 1 mM sodium pyruvate (Sigma-Aldrich Chemie GmbH, Steinheim, Germany) and 10% FBS (HyClone Laboratories). In case of BALB/3T3 cells, DMEM (Gibco, Thermo Fisher Scientific) supplemented with 2 mM L-glutamine and 5% FBS was used. Antibiotics: 100 U/mL penicillin (Polfa Tarchomin SA, Warsaw, Poland) and 100 µg/mL streptomycin (Sigma-Aldrich Chemie GmbH, Steinheim, Germany) were present in all the culture media; cells were cultured in a humid atmosphere containing 5% CO2 at 37 °C.
(§3) Twenty-four hours before addition of the tested compounds, each cell line was seeded in 96-well plastic plates (Sarstedt, Numbrecht, Germany) in an appropriate medium at 10^4 cells/well density, except MCF7 cell line: 0.75 × 10^4/well, and A549 cell line: 0.25 × 10^4/well. The studied cell lines were subjected to each of the tested sulfonamides at 4 different concentrations in the range of 100–0.1 µg/mL for 72 h. Cisplatin (Teva Pharmaceuticals, Poland) was used as a reference compound, and DMSO (Sigma-Aldrich Chemie GmbH, Steinheim, Germany) served as a solvent control at concentrations equivalent to these applied in the solutions of the tested sulfonamides. MTT assay was performed for leukemic cells, while sulforhodamine B assay (SRB) for the adherent cells.
(§4) After 72 h of incubation, cells were fixed in situ by gently adding of 50 µL per well of ice-cold 50% TCA (trichloroacetic acid, POCh, Gliwice, Poland) and were incubated at 4 °C for one hour. Each well was then washed five times with water, followed by addition of 50 µL of 0.4% solution of SRB (sulforhodamine B, Sigma-Aldrich Chemie GmbH, Steinheim, Germany) in 1% acetic acid (POCh, Gliwice, Poland), and plates were again incubated at RT for 0.5 h. Plates were washed five times with 1% acetic acid to remove the unbound dye. The stained cells were treated with 10 mM TRIS (Tris base, Sigma-Aldrich, Chemie GmbH, Steinheim, Germany). Absorbance at 540 nm in each well was read with Elisa plate reader (BioTek Synergy H4, Swindon, UK) using the Gen5 software.
(§5) The results are shown as average IC50 values (concentration of the compound causing inhibition of cell proliferation by 50%) ± standard deviation. IC50 values were determined using the Prolab-3 system based on Cheburator 0.4, a software developed by Nevozhay. At each concentration, sulfonamides were tested in triplicates in a single experiment. […]

[3] = system: A549; experiment: In vitro antiproliferative assay, SRB, 72 h; type: cell-based, human; conditions: lung cancer A549, 72 h, n.a. = not active in the range of concentrations used (up to 100 µM), read-out: IC50 [µM] ± SD [n = 5] A549
Source text: as §1, §2, §3, §4, §5

[4] = system: MCF-7; experiment: In vitro antiproliferative assay, SRB, 72 h; type: cell-based, human; conditions: n.a. = not active in the range of concentrations used (up to 100 µM), read-out: IC50 [µM] ± SD [n = 5] MCF-7
Source text: as §1, §2, §3, §4, §5

[5] = system: BALB/3T3; experiment: In vitro antiproliferative assay on normal fibroblasts, SRB, 72 h; type: cell-based, mouse; conditions: for IC50: normal mouse fibroblasts BALB/3T3, 72 h, SRB, n.a. = not active in the range of concentrations used (up to 100 µM), read-out: IC50 [µM] ± SD [n = 5] Balb/3T3; for selectivity: IC50 value for BALB/3T3 line times bigger than for leukemia cells MV4-11: IC50 BALB/3T3 versus IC50 MV4-11
Source text: as §1, §2, §3, §4, §5

[6] = Homo sapiens, MCF7, breast cancer MCF-7, 72 h

Row | SMILES | IC50 ([1]; Homo sapiens) [µM] | IC50 ([2]; Homo sapiens) [µM] | melting point [°C] | IC50 ([3]; Homo sapiens) [µM] | IC50 [4, 6] [µM] | IC50 [5] [µM] | selectivity: IC50 value for BALB/3T3 line times bigger than for leukemia cells MV4-11 [5] [times] | IC50 [1] [µM] | IC50 [3] [µM] | IC50 [2] [µM] | IC50 ([4]; breast cancer MCF-7, 72 h) [µM]
1 | C[C@@H](c1ccccc1)N1[C@H]2CC[C@H](C2)[C@H]1CNS(=O)(=O)c1ccc(F)cc1 [Compound 11d, 4-fluoro-N-(((1S,3S,4R)-2-((S)-1-phenylethyl)-2-azabicyclo[2.2.1]heptan-3-yl)methyl)benzenesulfonamide] | 43.6 ± 14.5 | 92.2 ± 12.7 | 105 to 107 | – | – | – | – | – | – | – | –
2 | CC(c1ccccc1)N1C2CCC(C2)C1CNS(=O)(=O)c1ccc(C(F)(F)F)cc1 (centres unmarked) [Compound 11e] | 16.1 ± 4.95 | 33.7 ± 5.13 | – | 38.4 ± 2.61 | 39.1 ± 7.14 | 37.5 ± 7.8 | – | – | – | – | –
3 | O=S(=O)(NC[C@H]1N[C@H]2CC[C@@H]1C2)c1ccc(-c2ccc(F)cc2)cc1 [Compound 10i, N-((1S,3S,4R)-2-azabicyclo[2.2.1]heptan-3-ylmethyl)-4’-fluoro-[1,1’-biphenyl]-4-sulfonamide] | 8.28 ± 2.21 | 21.7 ± 3.52 | 155 | 32.9 ± 1.36 | 18 ± 2.82 | 24.4 ± 2.75 | ~4 | – | – | – | –
4 | C[C@@H](c1ccccc1)N1[C@H]2CC[C@H](C2)[C@@H]1CNS(=O)(=O)c1ccccc1 [Compound 11b, (1S,3R,4R)-N-((2-((S)-1-phenylethyl)-2-azabicyclo[2.2.1]heptan-3-yl)methyl) benzenesulfonamide] | 52.7 ± 14 | – | 107 to 109 | – | – | – | – | – | – | – | –
5 | CC(c1ccccc1)N1C2CCC(C2)C1CNS(=O)(=O)c1ccc(-c2ccccc2)cc1 (centres unmarked) [Compound 11f] | 3.09 ± 1.56 | 19.3 ± 6.71 | – | 7.66 ± 2.08 | 54 ± 16 | 38.8 ± 7.88 | > 10 | – | – | – | –
6 | Cc1ccc(S(=O)(=O)NC[C@H]2[C@@H]3CC[C@@H](C3)N2[C@@H](C)c2ccccc2)cc1 [Compound 11c, (1S,3R,4R)-4-methyl-N-((2-((S)-1-phenylethyl)-2-azabicyclo[2.2.1]heptan-3-yl)methyl) benzenesulfonamide] | 29.6 ± 12.9 | 83.2 ± 11.8 | 124 to 127 | – | – | – | – | – | – | – | –
7 | C[C@@H](c1ccccc1)N1C[C@@H](NS(=O)(=O)c2ccc(-c3ccc(F)cc3)cc2)[C@@H]2CC[C@H]1C2 [Compound 9i, 4’-fluoro-N-((1S,4S,5R)-2-((S)-1-phenylethyl)-2-azabicyclo[3.2.1]octan-4-yl)-[1,1’-biphenyl]-4-sulfonamide] | 12.3 ± 3.25 | 13.3 ± 1.55 | 139 to 140 | 24.4 ± 0.9 | 12.7 ± 4.91 | 14.3 ± 3.18 | – | – | – | – | –
8 | COc1ccc(-c2ccc(S(=O)(=O)NC3CN(C(C)c4ccccc4)C4CCC3C4)cc2)cc1 (centres unmarked) [Compound 9h] | 3.92 ± 1.74 | 11.8 ± 2.46 | – | 9.13 ± 1.05 | 16.3 ± 2.11 | 15.1 ± 2.11 | ~3 | – | – | – | –
9 | N.N.[Cl][Pt][Cl] [cisplatin, reference compound] | – | – | – | – | – | 10.7 ± 3.3 | – | 1.78 ± 1.22 | 3.02 ± 1.79 | 11.8 ± 3.87 | 10.3 ± 6.23
10 | CC(c1ccccc1)N1CC(NS(=O)(=O)c2ccc(-c3ccccc3)cc2)C2CCC1C2 (centres unmarked) [Compound 9f] | 8.76 ± 3.45 | 14.5 ± 2.54 | – | 13.6 ± 1.1 | 18.8 ± 3.25 | 14.1 ± 2.63 | – | – | – | – | –

The next lines start with results.

Row | IC50 ([1]; Homo sapiens) [µM] | IC50 ([2]; Homo sapiens) [µM] | melting point [°C] | IC50 ([3]; Homo sapiens) [µM] | IC50 [4, 6] [µM] | SMILES | IC50 [5] [µM] | selectivity: IC50 value for BALB/3T3 line times bigger than for leukemia cells MV4-11 [5] [times] | IC50 [1] [µM] | IC50 [3] [µM] | IC50 [2] [µM] | IC50 ([4]; breast cancer MCF-7, 72 h) [µM]
11 | 7.15 ± 3.53 | 12.4 ± 2.44 | 95 | 11.3 ± 0.93 | 17.3 ± 2.29 | C[C@@H](c1ccccc1)N1[C@H]2CC[C@H](C2)[C@H]1CNS(=O)(=O)c1ccc(-c2ccccc2F)cc1 [Compound 11j, 2’-fluoro-N-(((1S,3S,4R)-2-((S)-1-phenylethyl)-2-azabicyclo[2.2.1]heptan-3-yl)methyl)-[1,1’-biphenyl]-4-sulfonamide] | 12.3 ± 1.88 | – | – | – | – | –
12 | 13.8 ± 2.64 | 15.8 ± 2.26 | – | 12.8 ± 1.38 | 22.4 ± 4.31 | COc1ccc(-c2ccc(S(=O)(=O)NCC3C4CCC(C4)N3C(C)c3ccccc3)cc2)cc1 (centres unmarked) [Compound 11h] | 12.4 ± 1.82 | – | – | – | – | –
13 | 15.1 ± 3.16 | 15.1 ± 4.94 | 128 to 129 | 16.4 ± 1.57 | 12.8 ± 4.03 | C[C@@H](c1ccccc1)N1C[C@@H](CNS(=O)(=O)c2ccc(-c3ccc(F)cc3)cc2)[C@@H]2CC[C@H]1C2 [Compound 12i, 4’-fluoro-N-(((1S,4S,5R)-2-((S)-1-phenylethyl)-2-azabicyclo[3.2.1]octan-4-yl)methyl)-[1,1’-biphenyl]-4-sulfonamide] | 18.4 ± 8.39 | – | – | – | – | –
14 | 11.2 ± 2.14 | 5.29 ± 2.56 | – | 2.98 ± 1.38 | 10.3 ± 2.71 | CC(c1ccccc1)N1C2CCC(C2)C1CNS(=O)(=O)c1ccc(-c2ccc(F)cc2)cc1 (centres unmarked) [Compound 11i] | 13.1 ± 2.68 | – | – | – | – | –
15 | – | – | 96 to 98 | – | – | C[C@@H](c1ccccc1)N1C(CN(C[C@H]2[C@@H]3CC[C@@H](C3)N2[C@@H](C)c2ccccc2)S(=O)(=O)c2ccc(-c3ccc(F)cc3)cc2)[C@@H]2CC[C@H]1C2 (stereo partly drawn) [Compound 13i, 4’-fluoro-N-(((1S,3R,4R)-2-((S)-1-phenylethyl)-2-azabicyclo[2.2.1]heptan-3-yl)methyl)-N-(((1S,4R)-2-((S)-1-phenylethyl)-2-azabicyclo[2.2.1]heptan-3-yl)methyl)-[1,1’-biphenyl]-4-sulfonamide] | – | – | – | – | – | –
16 | 4.26 ± 3.97 | 7.23 ± 16.2 | – | 14.1 ± 4.77 | 33 ± 18.9 | Cc1ccc(-c2ccc(S(=O)(=O)NCC3C4CCC(C4)N3C(C)c3ccccc3)cc2)cc1 (centres unmarked) [Compound 11g] | 45.3 ± 17.3 | > 10 | – | – | – | –
17 | 56.1 ± 26.9 | 44.5 ± 10.9 | – | 84.4 ± 26.1 | – | CC(c1ccccc1)N1C2CCC(C2)C1CN(CC1C2CCC(C2)N1C(C)c1ccccc1)S(=O)(=O)c1ccc(-c2ccccc2)cc1 (centres unmarked) [Compound 13f] | – | – | – | – | – | –

Reference: paper PMC7664408, “Biaryl Sulfonamides Based on the 2-Azabicycloalkane Skeleton—Synthesis and Antiproliferative Activity” (Materials, 2020)
